In brackets after ≈: the same amount, converted by molar mass. Read-outs that look alike come from different tables or passages of the source.
Legend:
S. pyogenes GC 4563 = assay: MIC, broth microdilution; conditions: Streptococcus pyogenes
S. aureus GC 1131 = assay: MIC, broth microdilution; conditions: Staphylococcus aureus
E. coli GC 1073 = assay: MIC, broth microdilution; conditions: Escherichia coli
E. faecalis GC 4555 = assay: MIC, broth microdilution; conditions: Enterococcus faecalis
S. aureus GC 1079 = assay: MIC, broth microdilution; conditions: Staphylococcus aureus
E. faecium GC 2243 = assay: MIC, broth microdilution; conditions: Enterococcus faecium
S. aureus GC 4536 = assay: MIC, broth microdilution; conditions: Staphylococcus aureus
E. coli GC 2236 = assay: MIC, broth microdilution; conditions: Escherichia coli
S. pneumoniae+ GC 4465 = assay: MIC, broth microdilution; conditions: Streptococcus pneumoniae
E. coli = assay: Range of MIC for E. coli strains; conditions: Escherichia coli
E. coli GC 2233 = assay: MIC, broth microdilution; conditions: Escherichia coli
E. faecalis GC 2265 = assay: MIC, broth microdilution; conditions: Enterococcus faecalis
S. aureus GC 6469 = assay: MIC, broth microdilution; conditions: Staphylococcus aureus
Staph. = assay: Range of MIC for Staph. strains, including MRSA; conditions: Staphylococcus aureus
E. coli GC 2272 = assay: MIC, broth microdilution; conditions: Escherichia coli
E. coli GC 6465 = assay: MIC, broth microdilution; conditions: Escherichia coli
S. aureus GC 6466 = assay: MIC, broth microdilution; conditions: Staphylococcus aureus
c. albicans GC 3066 = assay: MIC, broth microdilution
E. coli GC 2234 = assay: MIC, broth microdilution; conditions: Escherichia coli
S. epidermidis GC 4935 = assay: MIC, broth microdilution; conditions: Staphylococcus epidermidis

MIC (S. pyogenes GC 4563; GC4563, read-out: MINIMAL INHIBITORY CONCENTRATION MIC, pre-incubated in Human Serum): 4 µg/mL (≈ 5.28 µM)
MIC (S. pyogenes GC 4563; GC4563, read-out: MINIMAL INHIBITORY CONCENTRATION MIC, pre-incubated in Mouse Serum): 1 µg/mL (≈ 1.32 µM)
MIC (S. pyogenes GC 4563; GC4563, read-out: MINIMAL INHIBITORY CONCENTRATION MIC, pre-incubated in Water): 2 µg/mL (≈ 2.64 µM)
MIC (S. aureus GC 1131; GC1131, read-out: MINIMAL INHIBITORY CONCENTRATION MIC, pre-incubated in Human Serum): 2 µg/mL (≈ 2.64 µM)
MIC (S. aureus GC 1131; GC1131, read-out: MINIMAL INHIBITORY CONCENTRATION MIC, pre-incubated in Mouse Serum): 2 µg/mL (≈ 2.64 µM)
MIC (S. aureus GC 1131; GC1131, read-out: MINIMAL INHIBITORY CONCENTRATION MIC, pre-incubated in Water): 4 µg/mL (≈ 5.28 µM)
MIC (E. coli GC 1073; GC1073, read-out: MINIMAL INHIBITORY CONCENTRATION MIC, pre-incubated in Human Serum): > 64 µg/mL
MIC (E. coli GC 1073; GC1073, read-out: MINIMAL INHIBITORY CONCENTRATION MIC, pre-incubated in Mouse Serum): 4 µg/mL (≈ 5.28 µM)
MIC (E. coli GC 1073; GC1073, read-out: MINIMAL INHIBITORY CONCENTRATION MIC, pre-incubated in Water): > 64 µg/mL
MIC (E. faecalis GC 4555; GC4555, read-out: MINIMAL INHIBITORY CONCENTRATION MIC, pre-incubated in Human Serum): 4 µg/mL (≈ 5.28 µM)
MIC (E. faecalis GC 4555; GC4555, read-out: MINIMAL INHIBITORY CONCENTRATION MIC, pre-incubated in Mouse Serum): 2 µg/mL (≈ 2.64 µM)
MIC (E. faecalis GC 4555; GC4555, read-out: MINIMAL INHIBITORY CONCENTRATION MIC, pre-incubated in Water): 4 µg/mL (≈ 5.28 µM)
MIC (S. aureus GC 1079; GC1079, read-out: MINIMAL INHIBITORY CONCENTRATION MIC, pre-incubated in Human Serum): 2 µg/mL (≈ 2.64 µM)
MIC (S. aureus GC 1079; GC1079, read-out: MINIMAL INHIBITORY CONCENTRATION MIC, pre-incubated in Mouse Serum): 2 µg/mL (≈ 2.64 µM)
MIC (S. aureus GC 1079; GC1079, read-out: MINIMAL INHIBITORY CONCENTRATION MIC, pre-incubated in Water): 4 µg/mL (≈ 5.28 µM)
MIC (E. faecium GC 2243; GC2243, read-out: MINIMAL INHIBITORY CONCENTRATION MIC, pre-incubated in Human Serum): 4 µg/mL (≈ 5.28 µM)
MIC (E. faecium GC 2243; GC2243, read-out: MINIMAL INHIBITORY CONCENTRATION MIC, pre-incubated in Mouse Serum): 2 µg/mL (≈ 2.64 µM)
MIC (E. faecium GC 2243; GC2243, read-out: MINIMAL INHIBITORY CONCENTRATION MIC, pre-incubated in Water): 4 µg/mL (≈ 5.28 µM)
MIC (S. aureus GC 4536; GC4536, read-out: MINIMAL INHIBITORY CONCENTRATION MIC, pre-incubated in Human Serum): 2 µg/mL (≈ 2.64 µM)
MIC (S. aureus GC 4536; GC4536, read-out: MINIMAL INHIBITORY CONCENTRATION MIC, pre-incubated in Mouse Serum): 2 µg/mL (≈ 2.64 µM)
MIC (S. aureus GC 4536; GC4536, read-out: MINIMAL INHIBITORY CONCENTRATION MIC, pre-incubated in Water): 4 µg/mL (≈ 5.28 µM)
MIC (E. coli GC 2236; GC2236, read-out: MINIMAL INHIBITORY CONCENTRATION MIC, pre-incubated in Human Serum): > 64 µg/mL
MIC (E. coli GC 2236; GC2236, read-out: MINIMAL INHIBITORY CONCENTRATION MIC, pre-incubated in Mouse Serum): 2 µg/mL (≈ 2.64 µM)
MIC (E. coli GC 2236; GC2236, read-out: MINIMAL INHIBITORY CONCENTRATION MIC, pre-incubated in Water): > 64 µg/mL
MIC (S. pneumoniae+ GC 4465; read-out: MINIMAL INHIBITORY CONCENTRATION MIC, pre-incubated in Human Serum): 4 µg/mL (≈ 5.28 µM)
MIC (S. pneumoniae+ GC 4465; read-out: MINIMAL INHIBITORY CONCENTRATION MIC, pre-incubated in Mouse Serum): 4 µg/mL (≈ 5.28 µM)
MIC (S. pneumoniae+ GC 4465; read-out: MINIMAL INHIBITORY CONCENTRATION MIC, pre-incubated in Water): 4 µg/mL (≈ 5.28 µM)
MIC (E. coli; 20 h, read-out: Range of MIC, E. coli (Mouse Serum)): 2 to 8 µg/mL (≈ 2.64 to 10.6 µM)
MIC (E. coli; read-out: Minimum inhibitory concentration (MIC), E. coli (Human Serum)): > 64 µg/mL
MIC (E. coli; read-out: Minimum inhibitory concentration (MIC), E. coli (water)): > 64 µg/mL
MIC (E. coli; read-out: Range of MIC, E. coli (Water)): > 64 µg/mL
MIC (E. coli GC 2233; GC2233, read-out: MINIMAL INHIBITORY CONCENTRATION MIC, pre-incubated in Human Serum): > 64 µg/mL
MIC (E. coli GC 2233; GC2233, read-out: MINIMAL INHIBITORY CONCENTRATION MIC, pre-incubated in Mouse Serum): 2 µg/mL (≈ 2.64 µM)
MIC (E. coli GC 2233; GC2233, read-out: MINIMAL INHIBITORY CONCENTRATION MIC, pre-incubated in Water): > 64 µg/mL
MIC (E. faecalis GC 2265; GC2265, read-out: MINIMAL INHIBITORY CONCENTRATION MIC, pre-incubated in Human Serum): 2 µg/mL (≈ 2.64 µM)
MIC (E. faecalis GC 2265; GC2265, read-out: MINIMAL INHIBITORY CONCENTRATION MIC, pre-incubated in Mouse Serum): 2 µg/mL (≈ 2.64 µM)
MIC (E. faecalis GC 2265; GC2265, read-out: MINIMAL INHIBITORY CONCENTRATION MIC, pre-incubated in Water): 4 µg/mL (≈ 5.28 µM)
MIC (S. aureus GC 6469; GC6469, read-out: MINIMAL INHIBITORY CONCENTRATION MIC, pre-incubated in Human Serum): 2 µg/mL (≈ 2.64 µM)
MIC (S. aureus GC 6469; GC6469, read-out: MINIMAL INHIBITORY CONCENTRATION MIC, pre-incubated in Mouse Serum): 2 µg/mL (≈ 2.64 µM)
MIC (S. aureus GC 6469; GC6469, read-out: MINIMAL INHIBITORY CONCENTRATION MIC, pre-incubated in Water): 4 µg/mL (≈ 5.28 µM)
MIC (Staph.; MRSA, read-out: Range of MIC, Staph (Mouse Serum)): 2 µg/mL (≈ 2.64 µM)
MIC (Staph.; MRSA, read-out: Range of MIC, Staph (Water)): 2 to 4 µg/mL (≈ 2.64 to 5.28 µM)
MIC (Staph.; read-out: Minimum inhibitory concentration (MIC), Staph (Human Serum)): 2 to 4 µg/mL (≈ 2.64 to 5.28 µM)
MIC (Staph.; read-out: Minimum inhibitory concentration (MIC), Staph (Water)): 2 to 4 µg/mL (≈ 2.64 to 5.28 µM)
MIC (E. coli GC 2272; GC2272, read-out: MINIMAL INHIBITORY CONCENTRATION MIC, pre-incubated in Human Serum): > 64 µg/mL
MIC (E. coli GC 2272; GC2272, read-out: MINIMAL INHIBITORY CONCENTRATION MIC, pre-incubated in Mouse Serum): 2 µg/mL (≈ 2.64 µM)
MIC (E. coli GC 2272; GC2272, read-out: MINIMAL INHIBITORY CONCENTRATION MIC, pre-incubated in Water): > 64 µg/mL
MIC (E. coli GC 6465; GC6465, read-out: MINIMAL INHIBITORY CONCENTRATION MIC, pre-incubated in Human Serum): > 64 µg/mL
MIC (E. coli GC 6465; GC6465, read-out: MINIMAL INHIBITORY CONCENTRATION MIC, pre-incubated in Mouse Serum): 8 µg/mL (≈ 10.6 µM)
MIC (E. coli GC 6465; GC6465, read-out: MINIMAL INHIBITORY CONCENTRATION MIC, pre-incubated in Water): > 64 µg/mL
MIC (S. aureus GC 6466; GC6466, read-out: MINIMAL INHIBITORY CONCENTRATION MIC, pre-incubated in Human Serum): 2 µg/mL (≈ 2.64 µM)
MIC (S. aureus GC 6466; GC6466, read-out: MINIMAL INHIBITORY CONCENTRATION MIC, pre-incubated in Mouse Serum): 2 µg/mL (≈ 2.64 µM)
MIC (S. aureus GC 6466; GC6466, read-out: MINIMAL INHIBITORY CONCENTRATION MIC, pre-incubated in Water): 2 µg/mL (≈ 2.64 µM)
MIC (c. albicans GC 3066; Candida albicans, GC3066, read-out: MINIMAL INHIBITORY CONCENTRATION MIC): > 64 µg/mL
MINIMAL INHIBITORY CONCENTRATION MIC (c. albicans GC 3066; pre-incubated in Human Serum): >64 UG/ML
MINIMAL INHIBITORY CONCENTRATION MIC (c. albicans GC 3066; pre-incubated in Mouse Serum): >64 UG/ML
MIC (E. coli GC 2234; GC2234, read-out: MINIMAL INHIBITORY CONCENTRATION MIC, pre-incubated in Human Serum): > 64 µg/mL
MIC (E. coli GC 2234; GC2234, read-out: MINIMAL INHIBITORY CONCENTRATION MIC, pre-incubated in Mouse Serum): 2 µg/mL (≈ 2.64 µM)
MIC (E. coli GC 2234; GC2234, read-out: MINIMAL INHIBITORY CONCENTRATION MIC, pre-incubated in Water): > 64 µg/mL
MIC (S. epidermidis GC 4935; GC4935, read-out: MINIMAL INHIBITORY CONCENTRATION MIC, pre-incubated in Human Serum): 4 µg/mL (≈ 5.28 µM)
MIC (S. epidermidis GC 4935; GC4935, read-out: MINIMAL INHIBITORY CONCENTRATION MIC, pre-incubated in Mouse Serum): 2 µg/mL (≈ 2.64 µM)
MIC (S. epidermidis GC 4935; GC4935, read-out: MINIMAL INHIBITORY CONCENTRATION MIC, pre-incubated in Water): 4 µg/mL (≈ 5.28 µM)
SMILES: CCC(C)(C)C(=O)OCOC(=O)N(CC(=O)Nc1cc(N(C)C)c2c(c1O)C(=O)C1=C(O)[C@]3(O)C(=O)C(C(N)=O)=C(O)[C@@H](N(C)C)[C@@H]3C[C@@H]1C2)C(C)(C)C [Example 44, ({[(2-{[(5aR,6aS,7S,10aS)-9-(aminocarbonyl)-4,7-bis(dimethylamino)-1,8,10a,11-tetrahydroxy-10,12-dioxo-5,5a,6,6a,7,10,10a,12-octahydrotetracen-2-yl]amino}-2-oxoethyl)(tert-butyl)amino]carbonyl}oxy)methyl 2,2-dimethylbutanoate]

— patent publication US20070049564A1 (Wyeth, priority 2005, published 2007)
